Experimental data reported in patent US12161114B2, “Overpowered ABA receptor agonists” (The Regents of the University of California, priority 2018, dated 2024).

Assays:
Arabidopsis plants = assay: thermal imaging of leaf temperature (anti-transpirant activity), Arabidopsis; format: in vivo, Arabidopsis thaliana; settings: 50 μM spray, 24 hr after treatment
Experimental: Three to 4 week old Arabidopsis plants were used for thermal imaging, 4 evenly spaced seedlings were included per 4-inch pot, each pot treated as a single measurement. Chemical treatments were as follow: compounds were dissolved in 0.5% DMSO and 0.02% Silwet-77 (Lehle seeds) at 50 μM and rosette leaves treated with 5 mL applied as an aerosol. Thermal images were collected using FLIR T62101 camera 24 hr after treatment. Seedlings positions were randomized to control for microenvironmental differences in the growth room. Treated plants were compared to mock treated plants (sprayed with 5 mL blank 0.5% DMSO/0.02% Silwet-77 solution). Average rosette leaf temperatures were obtained by averaging the temperatures measured from between 10-15˜1 cm^2 area spots from the 4 plants in each replicate pot, using FLIR software. Statistical analyses of the treatment effects were conducted in GraphPad using a one way ANOVA between control and treatment samples and a Dunnett test was used to obtain multiplicity adjusted p values, which are reported in FIG. 15.

wheat seedlings = assay: thermal imaging of leaf temperature (anti-transpirant activity), wheat; format: in vivo, Triticum aesitivum
Experimental: To evaluate the effects of the optimized ligands on transpiration, we performed quantitative thermal imaging of 2 week old wheat seedlings (var. Cal Rojo) after chemical or mock treatments. Each pot contained 15 seedlings and was treated as a single replicate for a total of n=4. Seedlings were treated with 10 mL aerosolized solutions containing compounds of interest dissolved in 0.5% DMSO and 0.05% Silwet-77 (Lehle seeds). Thermal images were collected using a FLIR T62101 camera ˜24 hours post treatment. Average leaf temperatures were obtained by averaging the temperatures measured from between 10-15 ˜1 cm^2 area spots from the 15 plants sowed in each replicate pot.
To gain more detailed comparisons of the potency and persistence of different ABA agonists, we treated wheat seedlings (var. WB9229) with a range of agonist concentrations (mock, 11, 33, 100, 300 μM) and collected leaf temperature data at 24 hour intervals for 5 days. Mock treated samples were analyzed with 10 replicates and chemical treatments with 5 replicates. […] The corrected p-values for treatment effects at all time points is summarized in the inset table and highlighted yellow if a significant increase in leaf temperature was observed.

N#Cc1c(C2CC2)cc(CC(=O)NC2(C(=O)O)CCCCC2)cc1C1CC1 [2f, 1-[2-(4-cyano-3,5-dicyclopropylphenyl)acetamido]cyclohexane-1-carboxylic acid]
effects on transpiration (leaf temperature) (Arabidopsis plants): ABA-like effects on transpiration
anti-transpirant activity (leaf temperature) (wheat seedlings; var. Cal Rojo, 50 μM, ~24 hours post treatment): highly efficacious anti-transpirant
thermal response, potency and persistence (wheat seedlings; var. WB9229, 11, 33, 100, 300 μM, 24 hour intervals for 5 days): potent and persistent thermal response
